# Laboratory results from patent publication US20210290610A1, “COMBINATION OF FXR AGONISTS” (priority 2016, published 2021).
# Legend:
# [1] = test system: STAM Model of Non-alcoholic Steatohepatitis; assay: In vivo efficacy study in the STAM model of non-alcoholic steatohepatitis; design: species or system C57BL/6 mice; details: for NAFLD Activity Score (NAS) compared with the STAM-Vehicle group: FIG. 1.1
# From the text: Example: In Vivo Efficacy Study of cenicriviroc in combination with Compound A (“NVP-CH-4”) and Compound B (“NVP-CH-5”) in the STAM Model of Non-alcoholic Steatohepatitis (Treatment period: 6 to 9 wks or 9 to12 wks)
# The study involves 14-day-pregnant C57BL/6 mice. NASH was established by a single subcutaneous injection of […] streptozotocin (Sigma, USA) after birth and feeding with a high fat diet (HFD, 57% kcal fat, CLEA Japan, Japan) ad libitum after 4 weeks of age (day 28±2). Randomization of NASH mice into six groups of 12 mice at 6 weeks of age (day 42±2) and six groups of 12 mice at 9 weeks of age (day 63±2), the day before the start of treatment, respectively. NASH animals were dosed from age 6-9 weeks (Study 1), or from age 9-12 weeks (Study 2) with either: vehicle, cenicriviroc, Compound A (“NVP-CH-4”), Compound B (“NVP-CH-5”), cenicriviroc+Compound A or cenicriviroc+Compound B. A non-disease vehicle-control group of 12 mice was included in both Study 1 and Study 2. These animals were fed with a normal diet (CE-2; CLEA Japan) ad libitum.
# PK samples were collected and stored at −60° C. Animals were dosed according to the dosing schedule below. Each animal was sacrificed 5 hours after last morning dose on the last day of study treatment (the evening dose of cenicriviroc or vehicle […] that day due to sacrifice).
# Dosing: • Cenicriviroc was prepared in 0.5% (w/v) methylcellulose with 1% Tween® 80 in sterile water for injection (USP). • Compound A and Compound B were prepared in 0.5% (w/v) methylcellulose (400 cPs) aqueous solution containing 0.5% (v/v) polysorbate 80, NF, in reverse osmosis water. • In general, cenicriviroc monotherapy was administered twice daily, 12 hours apart (AM and PM). For Compound A or Compound B monotherapy groups, drug was administered once daily in the morning with vehicle alone in the evening (12 hours after the morning dose).
# End of Treatment Measurements: Mice were sacrificed at 9 weeks of age (study 1) or at 12 weeks of age (study 2).
# The following biochemical assays were performed: Non-fasting blood glucose in whole blood by Life Check (Eidia, Japan); serum ALT by FUJI DRI-CHEM (Fujifilm, Japan); serum triglyceride; serum MCP-1, RANTES (CCLS) and MIP-1α/MIP-1 quantification by a commercial ELISA kit; liver triglyceride by Triglyceride E-test kit (Wako, Japan); liver hydroxyproline quantification by hydrolysis method; histological analyses for liver section; HE staining and estimation of NAFLD Activity score; Sirius-red staining and estimation of fibrosis area (with and without perivascular space subtracted); oil red staining and estimation of fat deposition area; F4/80 immunohistochemistry staining and estimation of inflammation area; alpha-SMA immunohistochemistry staining and estimation of α-SMA positive area Gene expression assays using total RNA from the liver.
# Statistical tests were performed using one-way ANOVA followed by Dunnett's test and the Mann-Whitney test, as appropriate, for the multiple group comparisons. P values <0.05 are considered statistically significant.
# [2] = test system: NASH in adults with liver fibrosis; details: cited from earlier work
# [3] = test system: nonalcoholic steatohepatitis patients; details: cited from earlier work
# PBC = PBC patients; cited from earlier work
# [4] = Study 1, treatment week 6-9, CVC 50 mg/kg AM and PM, Compound A 0.1 mg/kg, Compound B 10 mg/kg
# [5] = NASH adults with liver fibrosis, one year
# [6] = Study 2, treatment week 9-12, same doses
smiles,measurement,setting,value
"CCCCOCCOc1ccc(-c2ccc3c(c2)/C=C(/C(=O)Nc2ccc([S@@+]([O-])Cc4cncn4CCC)cc2)CCCN3CC(C)C)cc1 [CVC, (S,E)-8-(4-(2-butoxyethoxy)phenyI)-1-(2-methylpropyl)-N-(4-(((1-propyl-1H-imidazol-5-yl)methyl)sulfinyl)phenyl)-1,2,3,4-tetrahydrobenzo[b]azocine-5-carboxamide]",NAFLD Activity Score (NAS) compared with the STAM-Vehicle group,[1]; [4],significant reductions in NAS
same,fibrosis,[2]; [5],reduction of fibrosis
same,improvement of NAS,[2]; [5],no significant impact
same,adverse effects,[2]; patients,can induce fatigue or diarrhea in a small part of the patients
"CC[C@H]1[C@@H](O)[C@@H]2[C@H](CC[C@]3(C)[C@@H]([C@H](C)CCC(=O)O)CC[C@@H]23)[C@@]2(C)CC[C@@H](O)C[C@@H]12 [obeticholic acid, Obeticholic acid]",safety concerns of long term administration,[3],"can be associated with pruritus, as well as with increased LDL cholesterol"
"C[C@H](CCC(=O)O)[C@H]1CC[C@H]2[C@@H]3[C@@H](O)C[C@@H]4C[C@H](O)CC[C@]4(C)[C@H]3CC[C@]12C [UDCA, Ursodeoxycholic acid]",population that does not respond,PBC,30-40%
"O=C(O)c1cc(F)c2nc(N3C4CCC3CC(OCc3c(-c5ccccc5OC(F)(F)F)noc3C3CC3)C4)sc2c1 (centres unmarked) [Compound A, 2-[3-({5-cyclopropyl-3-[2-(trifluoromethoxy)phenyl]-1,2-oxazol-4-yl}methoxy)-8-azabicyclo[3.2.1]octan-8-yl]-4-fluoro-1,3-benzothiazole-6-carboxylic acid]",NAFLD Activity Score (NAS) compared with the STAM-Vehicle group,[1]; [4],significant reductions in NAS
same,NAFLD Activity Score (NAS) compared with the STAM-Vehicle group,[1]; [6],significant reductions in NAS
"Cn1nc(C(=O)N(Cc2ccccc2)Cc2ccc(C(=O)O)cc2)c2c1-c1cc(Cl)ccc1OC2 [Compound B, 4-((N-benzyl-8-chloro-1-methyl-1,4-dihydrochromeno[4,3-c]pyrazole-3 carboxamido)methyl)benzoic acid]",NAFLD Activity Score (NAS) compared with the STAM-Vehicle group,[1]; [4],significant reductions in NAS
same,inflammatory cell infiltration score compared with the STAM-Vehicle group,"[1]; Study 1, week 6-9, FIG. 1.2",significant reductions in the inflammatory cell infiltration score
same,NAFLD Activity Score (NAS) compared with the STAM-Vehicle group,[1]; [6],significant reductions in NAS
